The source of these data is patent US6211215A, “Heterocyclic compounds, their production and use” (Takeda Chemical Industries, Ltd., priority 1996, dated 2001).

The subject of one assay is MCF-7. Description: Selective in vitro inhibition of breast cancer and prostate cancer cell growth. It is filed as cell-based. Particulars: Homo sapiens, MCF7, 72 h; Breast cancer MCF-7; 3 days; SRB; read-out: IC50, inhibition of cell proliferation. The method, then:
(§1) 100 μl (containing 2,000 cells) of a cell suspension of various human cancer cell lines shown in [Table 7] was seeded in each well of the 96-well microtiter plates. The cells were incubated at 37° C. in a 5% carbon dioxide gas incubator. Next day, 100 μl of a 2 fold serial dilution of a compound solution was added to each well. The cultures were incubated for 3 days. The solution containing the compound was removed and the cells were washed with water. To the cells was added a 0.4% (V/W) dye SRB (dissolved in 1% acetic acid) solution to fix and stain the cell protein. The dye solution was removed and the fixed and stained cell protein was washed. The protein-bound dye was extracted with 200 μl of 10 mM Tris buffer. The optical density of the extracted dye was determined at the wavelength of 540 nm to estimate the quantity of the cells in terms of the protein quantity. Designating the protein quantity in the control to which no compound solution was added as 100%, the proportion of the residual protein quantity in each treated group was calculated, and IC50, which was the concentration of the compound required to inhibit the residual protein quantity to 50% the quantity of the control, was calculated.

In a further assay the test system is PC3. Described as above. The assay is classed as cell-based. The following applies: Homo sapiens, PC-3, 72 h; Prostate cancer PC3; 3 days; SRB; read-out: IC50, inhibition of cell proliferation. As to the method:
as §1

Assay [1] relates to MDA-MB-453. The assay is described as above. The assay is classed as cell-based. Particulars: Homo sapiens, 72 h; Breast cancer MDA-MB-453; 3 days; SRB; read-out: IC50, inhibition of cell proliferation. As to the method: as §1
Another assay relates to LNCaP. Described as above. It is filed as cell-based. Particulars: Homo sapiens, 72 h; Prostate cancer LNCaP; 3 days; SRB; read-out: IC50, inhibition of cell proliferation. The method, then: as §1
For another assay, the system named is MRC5. Described as above. The assay is classed as cell-based. Particulars: Homo sapiens, 72 h; Normal MRC5; 3 days; SRB; read-out: IC50, inhibition of cell proliferation. As to the method:
as §1

For assay [2], the target named is T1, HER2 (Homo sapiens, UniProt P04626). Description: Inhibition of phosphorylation of receptor tyrosine in human breast cancer cells (2), MCF-7, heregulin-stimulated. The assay is classed as cell-based. More on the design: Human breast cancer cell line MCF-7 was used; endogenous in cells; host or cells: MCF-7. The following applies: heregulin control = 100%, read-out: Phosphorylation of receptor tyrosine residue (%); for activity at 0.4 µM: MCF7, 0.4 μM; for activity at 1.6 µM: MCF7, 1.6 μM; for activity at 6.3 µM: MCF7, 6.3 μM; for activity at 25 µM: MCF7, 25 μM. As to the method: Human breast cancer cell line MCF-7 was used. 1,000 μl of the cell suspension (250,000 cells) was seeded in each well of the 24-well plates. The culture were incubated at 37° C. in a 5% carbon dioxide gas incubator. On the next day, 100 μl of the 10-fold serial dilution of each compound solution was added to each well and, 2 hours later, 0.5 μg/ml of heregulin was added to it. After 5 minutes the extract solution was added to it to terminate the reaction, and the protein fraction was extracted. The protein was fractionated by the protein electrophoresis. The protein in the electrophoretic gel was transferred to a nylon filter. The filter was allowed to react with the phosphorylated tyrosine-specific antibody. The reaction product was fluorescence-labeled to expose a photofilm. The intensity of the exposure on the photofilm was quantitated by an image-analyzing apparatus. The proportion of the phosphorylation of HER2 tyrosine in the cells added with a compound solution of each concentration was calculated designating the phosphorylation of HER2 tyrosine in the heregulin-added cells as 100%.
Target sequence in this assay (P04626 23-1255): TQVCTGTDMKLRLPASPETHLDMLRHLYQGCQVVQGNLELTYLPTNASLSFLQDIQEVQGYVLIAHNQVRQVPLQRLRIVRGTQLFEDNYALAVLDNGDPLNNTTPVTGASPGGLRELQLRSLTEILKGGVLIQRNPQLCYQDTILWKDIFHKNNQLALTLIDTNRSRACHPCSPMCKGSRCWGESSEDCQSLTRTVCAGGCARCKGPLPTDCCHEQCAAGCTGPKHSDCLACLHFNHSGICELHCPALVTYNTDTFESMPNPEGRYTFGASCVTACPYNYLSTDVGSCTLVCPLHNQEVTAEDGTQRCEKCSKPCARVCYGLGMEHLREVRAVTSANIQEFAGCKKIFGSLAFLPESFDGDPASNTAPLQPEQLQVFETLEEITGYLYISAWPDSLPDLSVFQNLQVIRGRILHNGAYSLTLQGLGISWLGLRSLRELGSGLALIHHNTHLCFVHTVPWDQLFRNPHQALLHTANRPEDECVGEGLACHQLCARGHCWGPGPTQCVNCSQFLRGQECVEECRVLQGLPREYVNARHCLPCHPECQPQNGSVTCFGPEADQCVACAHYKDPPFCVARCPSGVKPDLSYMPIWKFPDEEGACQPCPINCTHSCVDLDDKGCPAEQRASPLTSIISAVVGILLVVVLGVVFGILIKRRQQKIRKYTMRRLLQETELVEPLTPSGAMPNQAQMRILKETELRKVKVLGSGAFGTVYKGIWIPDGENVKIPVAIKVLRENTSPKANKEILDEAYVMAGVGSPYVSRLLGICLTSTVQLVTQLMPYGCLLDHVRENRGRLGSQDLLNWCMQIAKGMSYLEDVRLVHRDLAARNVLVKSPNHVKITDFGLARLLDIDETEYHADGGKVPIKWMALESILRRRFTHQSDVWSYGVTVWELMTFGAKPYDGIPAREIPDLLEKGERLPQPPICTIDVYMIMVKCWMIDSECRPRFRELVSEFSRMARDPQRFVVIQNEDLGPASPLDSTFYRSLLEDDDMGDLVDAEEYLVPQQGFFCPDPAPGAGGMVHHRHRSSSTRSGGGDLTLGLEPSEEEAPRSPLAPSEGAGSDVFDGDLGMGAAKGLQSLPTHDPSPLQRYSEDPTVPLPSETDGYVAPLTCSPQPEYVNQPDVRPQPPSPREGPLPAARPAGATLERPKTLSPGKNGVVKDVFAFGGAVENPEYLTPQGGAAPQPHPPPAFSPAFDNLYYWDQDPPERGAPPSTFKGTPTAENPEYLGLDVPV

For assay [3], the system named is MDA-MB-453. In words: In vitro inhibition of cell proliferation (2). The following applies: Homo sapiens, 72 h; Breast cancer MDA-MB-453; 3 days; SRB. The assay is classed as cell-based. As to the method:
(§2) 100 μl (containing 2,000 cells) of a cell suspension of human breast cancer cell line MDA-MB-453 was seeded in each well of the 96-well microtiter plates. The cultures were incubated at 37° C. in a 5% carbon dioxide gas incubator. On the next day, 100 μl of the 2-fold serial dilution of each compound solution was added to each well and the mixtures were cultured for 3 days. The solution containing the compound was removed and the cells were washed with water. To the cells was added a 0.4% (W/V) dye SRB (dissolved in 1% acetic acid) solution to fix and stain the cell protein (Skehan P. et al., Journal of the National Cancer Institute Vol.82, pp.1107-1112, 1990). The dye solution was removed and the fixed and stained cell protein was washed. The protein-bound dye was extracted with 200 μl of 10 mM Tris buffer. The optical density of the extracted dye was determined at the wavelength of 540 nm to estimate the quantity of the cells in terms of the protein quantity. Designating the protein quantity in the control to which no compound solution was added as 100%, the proportion of the residual protein quantity in each treated group was calculated, and IC50, which was concentration of the compound required to inhibit the residual protein quantity to 50% the quantity of the control, was calculated.

In assay [4] the test system is MDA-MB-453. In words: In vitro inhibition of cell proliferation (1). The assay is classed as cell-based. The following applies: Homo sapiens, 72 h; Breast cancer MDA-MB-453; 3 days; SRB. As to the method: as §2
In assay [5] the target is T1, HER2. Description: Inhibition of the activity of human growth factor receptor (HER2) tyrosine kinase. It is filed as biochemical. More on the design: the tyrosine kinase domain of the human HER2 gene was cloned; made in house; host or cells: insect cell line SF-21 (recombinant insect virus vector). Particulars: HER2 receptor type tyrosine kinase; ELISA with HER3 substrate; read-out: Concentration of inhibiting HER2 (IC50). An excerpt: As enzyme standard, the tyrosine kinase domain of the human HER2 gene was cloned to prepare the recombinant gene of insect virus vector, with which the insect cell line SF-21 was infected to produce an enzyme protein (Guy P. M. et al., Journal of Biological Chemistry Vol. 267, pp.13851-13856, 1992). As substrate, the phosphorylated tyrosine domain of the HER3 protein was cloned to prepare the recombinant gene of plasmid vector with which Escherichia Coli strain JM109 was infected to give an enzyme protein (Sierke S. L. et al., Biochemistry Vol. 32, pp.10102-10108, 1993). The enzymatic reaction was performed by the enzyme-linked immunological method which consisted of fixing the substrate protein in wells of a 96-well microtiter plate, adding the enzyme into the wells and quantitating phosphorylated tyrosine, which was the reaction product, by use of the anti-phosphorylated tyrosine antibody (Cleaveland J. S. et al., Analytical Biochemistry Vol. 190, pp249-253, 1990).
Target sequence in this assay (P04626 720-987 limits assumed): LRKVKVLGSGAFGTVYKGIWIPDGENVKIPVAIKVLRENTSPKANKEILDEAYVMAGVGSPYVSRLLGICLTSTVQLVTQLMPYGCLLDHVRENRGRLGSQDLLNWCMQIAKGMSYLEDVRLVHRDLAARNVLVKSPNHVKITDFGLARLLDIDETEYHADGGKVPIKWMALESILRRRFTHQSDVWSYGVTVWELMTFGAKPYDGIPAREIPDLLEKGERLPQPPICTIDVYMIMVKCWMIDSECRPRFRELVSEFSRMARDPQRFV

Assay [6] has as its system human prostatic cancer cell line, LNCaP. Description: In vivo inhibition of prostate cancer (1). More on the design: species or system male Balb/C-strain athymic nude mice. Particulars: for Tumor growth rate (%): oral, gained tumor volume vs control; for Inhibition of implanted tumor growth: LNCaP, athymic nude mice. As to the method: 5,000,000 cells of human prostatic cancer cell line, LNCaP, were suspended in a gelmatrix solution and implanted subcutaneously at the breast in 8-week old male Balb/C-strain athymic nude mice (Friedman R. et al., Proceedings of the National Academy of Sciences of the U.S.A. Vol. 87, pp.6698-6702, 1990). 42 days (in the case of compound 72) or 57 days (in the case of compound 109) after the implantation, the diameters of tumors were measured. Five mice per group with similar tumor size were used for the experiment. Compounds 72 or 109 of the present invention was suspended in a 5% gum arabic solution (physiological saline) and administered orally twice daily in a dose of 60 mg/kg and 90 mg/kg body weight for 10 days. After the completion of the dosing, the diameters of tumor were measured. The tumor volume was calculated by the following formula: volume of tumor=longest diameter×shortest diameter×shortest diameter×1/2. The growth rate of tumors was obtained as the proportion of the gained tumor volume which was subtracted the initial volume from the final volume in the treated animals to the gained tumor volume which was subtracted the initial volume from the final volume in the control animals. The body weights of mice administered with compounds of the present invention were measured during the experiment to observe no decrease.

The subject of assay [7] is human breast cancer cell line, MDA-MB-453. Description: In vivo mammary cancer inhibiting effect (2). Also noted: species or system female Balb/C strain athymic nude mice. Particulars: oral, gained tumor volume vs control. As to the method:
5,000,000 cells of human breast cancer cell line, MDA-MB-453, were suspended in a gelmatrix solution. The suspension was subcutaneously implanted at the breast in 7-week-old female Balb/C strain athymic nude mice (Friedman R. et al., Proceedings of the National Academy of Sciences of the U.S.A. Vol. 87, pp.6698-6702, 1990). Twelve days after the implantation, the diameters of tumors were determined. For the experiment were used 5 mice per group with similar tumor size. Compound 72 or 109 of the present invention was suspended in a 5% gum arabic solution (physiological saline) and administered orally twice daily in dose of 60 mg/kg or 90 mg/kg body weight for 10 days. On the day when the dosing was ended, the diameters of tumors were measured. Tumor volume was calculated by the following formula: volume of tumor=longest diameter×shortest diameter×shortest diameter×1/2. The growth rate of tumors was obtained as the proportion of the gained tumor volume which was substracted the initial volume from the final volume in the treated animals to the gained tumor volume which was substracted the initial volume from the final volume in the control animals. The body weights of mice administered with compounds of the present invention were measured during the experiment to observe no decrease.

For a further assay, the system named is T-47D. Description: Selective in vitro inhibition of breast cancer and prostate cancer cell growth. The assay is classed as cell-based. The following applies: Homo sapiens, T47D, 72 h; Breast cancer T-47D; 3 days; SRB; read-out: IC50, inhibition of cell proliferation. As to the method:
as §1

Assay [8] concerns human epidermal carcinoma cell line A431. The following applies: Journal of Antibiotics, Vol.39, p.170, 1986; cited from earlier work.
For assay [9], the system named is human squamous cell carcinoma MH-85. Particulars: Cancer Research, Vol.51, p.4430, 1991; cited from earlier work.
Where [10] appears, read: 120 mg/kg/day, 60 mg/kg twice daily for 10 days.
[11] abbreviates: 180 mg/kg/day, 90 mg/kg twice daily for 10 days.

`c1csc(-c2nc3cc(COc4ccc(CCCCn5ccnc5)cc4)ccc3o2)c1` [Compound 80, 5-[4-[4-(1-imidazolyl)butyl]phenoxymethyl]-2-(2-thienyl)benzoxazole]: the IC50 with MCF-7 is 0.01 µM; in the assay on PC3, 6.5 µM; in the assay with MDA-MB-453 [1], 0.09 µM; in the assay on LNCaP, 1.6 µM; in the assay on MRC5 it was greater than 25 µM; in the assay with MDA-MB-453 [3], 0.09 µM. Moreover, at HER2 [2], the activity at 0.4 µM is 46%. Moreover, on HER2 [2], the activity at 1.6 µM worked out at 40%. Besides, the activity at 6.3 µM at HER2 [2] came to 34%.
As to `C(=C\c1nc(COc2ccc(CCCCn3cncn3)cc2)co1)/c1ccccc1` [Compound 2, 1-[4-[4-[2-[(E)-2-phenylethenyl]-4-oxazolylmethoxy]phenyl]butyl]-1,2,4-triazole], the figures for the IC50 in the assay with MDA-MB-453 [4] and at HER2 [5] were 0.66 µM and 67 µM, respectively.
For `c1csc(-c2nc(COc3ccc(CCCn4ccnc4)cc3)co2)c1` [Compound 72, 4-[4-[3-(1-imidazolyl)propyl]phenoxymethyl]-2-(2-thienyl)oxazole], the “Tumor growth rate (%)” value in assay [6] (setting [10]) is reported as 91%; in assay [6] (setting [11]) it was 57%; in assay [7] (setting [10]), 84%; in [7] (setting [11]), 71%. Besides, in assay [6], the “Inhibition of implanted tumor growth” value is listed as “inhibiting tumor growth of hormone dependent prostate cancer LNCaP”. Further, the IC50 in the assay on MCF-7 is 0.62 µM; in the assay on PC3, 9.5 µM; in the assay on MDA-MB-453 [1], 1.7 µM; in the assay on LNCaP, 7.9 µM; with MRC5 it was greater than 25 µM; in the assay on T-47D it was 3.5 µM. The IC50 with MDA-MB-453 [3] was 1.7 µM. Further, at HER2 [2], the activity at 0.4 µM came to 96%. Also, on HER2 [2], the activity at 1.6 µM turned out to be 48%. The activity at 6.3 µM at HER2 [2] came out at 19%. For the same compound, at HER2 [2], the activity at 25 µM stood at 7%.
Take `O=CN/C=C/c1cc(O)ccc1O` [erbstatin]: in assay [8], the “Inhibition of proliferation” value is recorded as “inhibits proliferation of human epidermal carcinoma cell line A431”.
As to `c1csc(-c2nc(COc3ccc(CCCn4ccnc4)cc3)cs2)c1` [Compound 94, 4-[4-[3-(1-imidazolyl)propyl]phenoxymethyl]-2-(2-thienyl)thiazole], the IC50 in the assay on MCF-7 was 1.1 µM; in the assay on PC3, 15 µM; in the assay with MDA-MB-453 [1], 4.8 µM; with LNCaP, 5.6 µM; in the assay with MRC5 it was greater than 25 µM; with MDA-MB-453 [3], 4.8 µM. Moreover, the activity at 0.4 µM at HER2 [2] was 93%. Besides, the activity at 1.6 µM at HER2 [2] worked out at 86%. Also, the activity at 6.3 µM on HER2 [2] was 45%. Also, the activity at 25 µM at HER2 [2] was 25%.
`COc1cc2ncnc(Nc3cccc(Cl)c3)c2cc1OC` [tyrphostin]: in assay [9], the “Antitumor activity in vivo” value is given as “has antitumor activity”.
Take `Cc1ccc(-c2nc(COc3ccc(CCCn4ccnc4)cc3)co2)s1` [Compound 109, 4-[4-[3-(1-imidazolyl)propyl]phenoxymethyl]-2-(5-methyl-2-thienyl)oxazole]: the “Tumor growth rate (%)” value in [6] (setting [10]) amounted to 28%; in assay [7] (setting [10]), 35%. For the same compound, the “Inhibition of implanted tumor growth” value in assay [6] is recorded as “inhibiting tumor growth of hormone dependent prostate cancer LNCaP”. Also, the IC50 in the assay on MCF-7 is 0.19 µM; with PC3, 16 µM; with MDA-MB-453 [1] it was 2.5 µM; in the assay on LNCaP, 11 µM; with MRC5, greater than 25 µM; in the assay with MDA-MB-453 [3], 2.5 µM. For the same compound, the activity at 0.4 µM on HER2 [2] turned out to be 92%. Besides, the activity at 1.6 µM at HER2 [2] was found to be 89%. Further, the activity at 6.3 µM on HER2 [2] came out at 43%. The activity at 25 µM on HER2 [2] was 31%.
